Where two headings read alike, the source gives them in different places.
Columns and labels:
Cathepsin D = Cathepsin D (Homo sapiens (Human), UniProt P07339); assay: In vitro enzymatic Cat D (Cathepsin D) FRET assay; type: biochemical; settings: average IC50
Summary of the method: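 CHO-expressed recombinant enzyme in 0.05 M citrate pH 3.5, 5 mM CHAPS, 10% DMSO final; reaction started with 20 nM quenched-peptide FRET substrate (cleavage site spanned by fluorophore/quencher), 1 h incubation.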

[1] = test system: Aβ40 in conditioned medium of cells stably expressing Amyloid Precursor Protein (APP); assay: In vitro BACE cell-based assay (HEK cell assay, Aβ40 sandwich ELISA); settings: Homo sapiens, HEK293; average IC50, Aβ40, 24 h incubation
Summary of the method: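 Aβ40 in supernatants was measured by time-resolved fluorescence sandwich ELISA using pAb40 capture and biotinylated 6E10 detection, with antibody incubations at 4 °C. Stable APP cells were exposed to compounds for 24 h in a 10-point series (top dose 100 or 10 µM, 0.1% DMSO). IC50 was fitted from the concentration-response.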

[2] = biological target: BACE 1 (beta secretase enzyme) (Homo sapiens (Human), UniProt P56817); assay: In vitro enzymatic BACE FRET assay; type: biochemical; settings: average IC50
Summary of the method: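 The enzyme was tested in 0.05 M acetate, pH 4.2, with 10% DMSO final and 100 uM genapol. The reaction was started with 50 nM quenched FRET peptide substrate, incubated one hour and stopped with Tris to neutral pH. Cleavage was read as fluorescence ([…]).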

Abeta 40 = assay: In vivo inhibition of beta-secretase: Abeta 40 reduction in CSF and brain of the rat; settings: 10 mpk, after 4 hrs
Text: In Vivo Inhibition of Beta-Secretase
Several animal models, including mouse, rat, dog, and monkey, may be used to screen for inhibition of beta-secretase activity in vivo following administration of a test compound sample. Animals used in this invention can be wild type, transgenic, or gene knockout animals. For example, the Tg2576 mouse model, prepared and conducted as described in Hsiao et al., 1996, Science 274, 99-102, and other non-transgenic or gene knockout animals are useful to analyze in vivo inhibition of Amyloid beta peptide (Abeta) production in the presence of inhibitory test compounds. Generally, 2 to 18 month old Tg2576 mice, gene knockout mice or non-transgenic animals are administered test compounds formulated in vehicles, such as cyclodextran, phosphate buffers, hydroxypropyl methylcellulose or other suitable vehicles. One to twenty-four hours following the administration of compound, animals are sacrificed, and brains as well as cerebrospinal fluid (CSF) and plasma are removed for analysis of A-beta levels and drug or test compound concentrations (Dovey et al., 2001, Journal of Neurochemistry, 76, 173-181) Beginning at time 0, animals are administered by oral gavage, or other means of delivery such as intravenous injection, an inhibitory test compound of up to 100 mg/kg in a standard, conventional formulation, such as 2% hydroxypropyl methylcellulose, 1% Tween80. A separate group of animals receive 2% hydroxypropyl methylcellulose, 1% Tween80 alone, containing no test compound, and serve as a vehicle-control group. At the end of the test period, animals are sacrificed and brain tissues, plasma or cerebrospinal fluid are collected. Brains are either homogenized in 10 volumes (w/v) of 0.2% diethylamine (DEA) in 50 mM NaCl (Best et al., 2005, Journal of Pharmacology and Experimental Therapeutics, 313, 902-908), or in 10 volumes of 0.5% TritonX-100 in Tris-buffered saline (pH at about 7.6). Homogenates are centrifuged at 355,000 g, 4° C. for 30 minutes. CSF or brain supernatants are then analyzed for the presence of A-beta peptide by specific sandwich ELISA assays based on ECL (Electrochemiluminescence) technology. For example, rat Abeta40 is measured using biotinylated-4G8 (Signet) as a capture antibody and Fab40 (an in-house antibody specific to the C-terminal of Abeta40) as a detection antibody. For example, 4 hours after administration of 30 mg/kg oral dose of the test compound in 2% hydroxypropyl methylcellulose, 1% Tween80 (pH2.2) to 200 g male Sprague Dawley rats, amyloid beta peptide levels are measured for reduction by X % and Y % in cerebrospinal fluid and brain, respectively, when compared to the levels measured in the vehicle-treated rats.
• Oral: 2% HPMC, 1% Tween80, pH 2.2 • IV: 5% EtOH, 45% Propylene glycol in 5% Dextrose
The compounds of the invention may be shown to reduce the formation and/or deposition of amyloid beta peptide in the cerebrospinal fluid (CSF) as well as in the brain of a mouse or rat at either 3 mpk, 10 mpk or 30 mpk (mpk=mg compound per kg weight of the animal) dosing concentrations after 4 hrs.

[3] = people of the phase I trial; cited from earlier work
[4] = test system: pigment epithelium of the rat's eye; settings: higher compound dose given for three months; cited from earlier work
[5] = Abeta 40, rat CSF, read-out: % reduction of rat CSF levels at 10 pmk
[6] = Abeta 40, rat brain, read-out: % reduction of rat brain levels at 10 mpk

BACE 1 (beta secretase enzyme), sequence (P56817 46-501): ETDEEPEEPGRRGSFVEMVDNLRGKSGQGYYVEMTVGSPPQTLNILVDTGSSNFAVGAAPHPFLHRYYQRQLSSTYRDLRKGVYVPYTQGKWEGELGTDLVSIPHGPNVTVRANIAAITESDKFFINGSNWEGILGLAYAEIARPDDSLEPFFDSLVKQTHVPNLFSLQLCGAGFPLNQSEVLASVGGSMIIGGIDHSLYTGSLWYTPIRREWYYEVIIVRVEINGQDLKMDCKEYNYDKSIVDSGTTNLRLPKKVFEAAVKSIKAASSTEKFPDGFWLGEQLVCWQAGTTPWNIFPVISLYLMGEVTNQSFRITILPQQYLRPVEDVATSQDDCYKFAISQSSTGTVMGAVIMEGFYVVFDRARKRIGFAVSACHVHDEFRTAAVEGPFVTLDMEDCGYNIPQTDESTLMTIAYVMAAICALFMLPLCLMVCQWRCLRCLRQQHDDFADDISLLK
Cathepsin D, sequence (P07339 65-412, species assumed): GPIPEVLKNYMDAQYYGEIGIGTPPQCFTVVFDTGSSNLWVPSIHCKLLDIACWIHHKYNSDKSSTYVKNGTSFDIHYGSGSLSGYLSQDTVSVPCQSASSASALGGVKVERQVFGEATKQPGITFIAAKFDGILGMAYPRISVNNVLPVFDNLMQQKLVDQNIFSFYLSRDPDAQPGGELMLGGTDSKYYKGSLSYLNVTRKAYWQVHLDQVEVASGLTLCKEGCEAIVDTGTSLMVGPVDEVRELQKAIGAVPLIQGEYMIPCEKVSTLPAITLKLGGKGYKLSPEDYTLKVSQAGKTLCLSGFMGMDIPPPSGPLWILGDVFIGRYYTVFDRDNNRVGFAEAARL

SMILES	IC50 (Cathepsin D) [nM]	IC50 [1] [nM]	IC50 [2] [nM]	inhibition in vivo at 10 mg/kg (Abeta 40; [5]) [%]	inhibition in vivo at 10 mg/kg (Abeta 40; [6]) [%]	eye assessments [3]	retinal toxicity finding [4]
Cc1nc(C(=O)Nc2ccc3c(c2)[C@@]2(CCOC(N)=N2)c2cc(-c4cncc(F)c4)nc(F)c2O3)cs1 [Example 88, N-((5S)-2′-amino-1-fluoro-3-(5-fluoro-3-pyridinyl)-5′,6′-dihydrospiro[chromeno[2,3-c]pyridine-5,4′-[1,3]oxazin]-7-yl)-2-methyl-1,3-thiazole-4-carboxamide]	362000	0.2	0.6	49	27	–	–
NC1=N[C@@]2(CCO1)c1cc(NC(=O)c3ccc(F)cn3)ccc1Oc1c2cc(-c2cncc(F)c2)nc1F [Example 89, N-((5S)-2′-amino-1-fluoro-3-(5-fluoro-3-pyridinyl)-5′,6′-dihydrospiro[chromeno[2,3-c]pyridine-5,4′-[1,3]oxazin]-7-yl)-5-fluoro-2-pyridinecarboxamide]	400000	0.6	1.6	69	46	–	–
COc1cnc(C(=O)Nc2ccc3c(c2)[C@@]2(CCOC(N)=N2)c2cc(-c4ccnc(F)c4)nc(F)c2O3)cn1 [Example 92, N-((5S)-2′-amino-1-fluoro-3-(2-fluoro-4-pyridinyl)-5′,6′-dihydrospiro[chromeno[2,3-c]pyridine-5,4′-[1,3]oxazin]-7-yl)-5-methoxy-2-pyrazinecarboxamide]	400000	0.9	1.8	79	70	–	–
COc1ccc(C(=O)Nc2ccc3c(c2)[C@@]2(CCSC(N)=N2)c2cc(C4=CCOCC4)nc(F)c2O3)nc1 [Example 101, N-((5S)-2′-amino-3-(3,6-dihydro-2H-pyran-4-yl)-1-fluoro-5′,6′-dihydrospiro[chromeno[2,3-c]pyridine-5,4′-[1,3]thiazin]-7-yl)-5-methoxy-2-pyridinecarboxamide]	198000	0.7	1.5	76	59	–	–
COc1cnc(C(=O)Nc2ccc3c(c2)[C@@]2(CCSC(N)=N2)c2cc(C4=CCCOC4)ncc2O3)cn1 [Example 104, N-((5S)-2′-amino-3-(5,6-dihydro-2H-pyran-3-yl)-5′,6′-dihydrospiro[chromeno[2,3-c]pyridine-5,4′-[1,3]thiazin]-7-yl)-5-methoxy-2-pyrazinecarboxamide]	295000	1	3.1	64	43	–	–
COc1ccc(C(=O)Nc2ccc3c(c2)[C@@]2(CCSC(N)=N2)c2cc(C4=CCCOC4)nc(F)c2O3)nc1 [Example 111, N-((5S)-2′-amino-3-(5,6-dihydro-2H-pyran-3-yl)-1-fluoro-5′,6′-dihydrospiro[chromeno[2,3-c]pyridine-5,4′-[1,3]thiazin]-7-yl)-5-methoxy-2-pyridinecarboxamide]	569000	0.8	2.5	76	58	–	–
C[C@@]1(c2cc(-c3cncnc3)c(F)cc2F)CCSC(N)=N1 [LY 2811376]	–	–	–	–	–	did not show any abnormalities	ravaged the pigment epithelium of the rat's eye
